Assay results taken from US8232299B2, “Phthalimide derivatives that influence cellular vesicular systems, pharmaceutical compositions, and use thereof” (Avidin Kft., priority 2007, dated 2012).

Legend:
human melanoma (HT168M1) = test: subcutaneous melanoma tumor model; assay type: in vivo, CB17/scid mice; conditions: 40 mg/kg per os, once a day five days per week for 3 weeks from day 7; FIG. 8
Procedure: Slightly anesthetized (diethyl ether narcosis) adult male CB17/scid mice born with immunodeficiency were subcutaneously (s.c.) implanted with 8×10^5 cells from in vitro human melanoma (HT168M1) cultures. After tumor cell inoculation animals were randomly assigned into three groups and their ears were marked. From the 7th day after the tumor cell inoculation mice were treated once a day five days per week for 3 weeks with compound 2 (40 mg/kg), or with compound 3b (40 mg/kg) per os by gavage. Control animals were treated with appropriate dilution of the carrier (DMSO) in a similar manner with similar frequency. Body weight changes were monitored once a week for each animal. When subcutaneous tumor reached palpable size its dimensions were also detected with caliper. Tumor volume was estimated by the formula π/6×a×b^2, where “a” is the longer and “b” is the shorter diameter. 30 days after implantation animals were sacrificed by bleeding in Nembutal (75 mg/kg) anesthesia. Evaluation was based on the mass of the primary tumor.
In this experiment the effect of compound 2 and compound 3b was tested in oral administration at the same dose (40 mg/kg).

tumor necrosis factor = conditions: Japanese patent application JP10072346; cited from earlier work
[1] = Japanese patent JP10072346; cited from earlier work

For `CC(C)c1cccc(C(C)C)c1N1C(=O)c2c(F)c(F)c(F)c(F)c2C1=O` [Compound 2, 2-(2,6-diizopropylphenyl)-4,5,6,7-tetrafluorisoindolin-1,3-dione], the “effect on growth of the subcutaneous primary tumor (tumor mass)” value (human melanoma (HT168M1)) is listed as “not significant”, the “production of tumor necrosis factor” value (tumor necrosis factor) is listed as “inhibits the production of tumor necrosis factor” and the anti-inflammatory effect [1] is listed as “has anti-inflammatory effect”.
